Data on one compound can be found in patent publication US20110117164A1, “Use of Additive Sites to Control Nitric Oxide Release from Nitric Oxide Donors Contained within Polymers” (priority 2004, published 2011).

The nature of series [1]: NO release from polymer films/coatings containing NO donor in PBS buffer at 37° C. by chemiluminescence. Format: physicochemical. The method, then: Thermal stability of diazeniumdiolates. […] Kinetics. […] Use in Hydrophobic Systems.
In the absence of the KTpClPB, NO release decreases dramatically after approximately 1 hour. […] The decrease in NO release observed is believed to result from an increase in the pH within the organic polymer film, which decreases the decomposition rate of lipophilic diazeniumdiolates. As water diffuses into the film initiating NO release, secondary amine sites result. The secondary amine sites have a higher pKa than water and therefore deprotonate water to form hydroxide ions. The basic microdomain environment that results within the polymer, in turn, slows further decomposition of the remaining diazeniumdiolates that would generate NO. This retardation may occur as a result of the organic ammonium hydroxide microphases within the polymer, which in turn serves to stabilize the remaining diazeniumdiolates.
FT-IR were collected on Perken Elmer Spectrum VX. […] Elemental analyses were performed. Reagents. […] NO was purchased from Matheson Gases. […] General NO Addition Procedure. […] The products were finally collected and dried under vacuum. Molar Extinction Coefficients. […] The maximum wavelength and absorbance were collected. […] Kinetics Studies. […] The NO released was measured using chemiluminescence. […] Preparation of Polymer Films Containing Diazeniumdiolates. […] The membranes were covered and allowed to cure overnight. […] Polymerization to Form Boc-protected Diamine Copolymer.
General Procedure for Deprotection to Form Diamine Copolymer (c). 35 mg of the copolymer (b) was dissolved in 2 mL of dichloromethane and then 200 μL of TFA (trifluoroacetic acid) was added dropwise. The solution was stirred at room temperature for about 3 hours. The reaction mixture was diluted with 20 mL of dichloromethane, and the organic phase was then washed with sodium bicarbonate, water, and brine, and was dried with sodium sulfate. The solvent was evaporated and the resulting copolymer was dried under vacuum overnight. ^1H-NMR was performed to confirm the structure and actual composition of the copolymer. General Procedure for NO Loading to Form Polymer-Based NO Donor (d). 20 mg of the deprotected copolymer (c) was dissolved in 3 mL of dry THF and placed in a high pressure reactor with a stirring bar, and flushed with argon for about 10 minutes. 100% excess of sodium methoxide (with respect to free amine sites) was added and the reactor was closed. The reactor was purged with argon again for several times (e.g. ten times) over a 1 hour period and was charged with NO at 80 psi. The reaction mixture was stirred for 72 hours at room temperature. After the reaction was complete, the copolymer was precipitated with dry hexane under argon. The remaining solvent was removed using a vacuum, and the diazeniumdiolated copolymers (d) were examined by UV-Vis spectrum as well as NOA. This resulting copolymer was stored in sealed vials charged with argon in a freezer. Preparation of Polymer Films Containing Polymer-Based No Donor. Polymer membranes containing the polymer-based NO donor was prepared by dissolving 60.8 mg poly(vinyl chloride) (PVC), 30.4 mg dioctyl sebacate (DOS), and 9.1 mg poly(lactide-co-glycolide) (50:50) (PLGA 50:50) in 1.5 mL of freshly distilled tetrahydrofuran. […] A trilayer film configuration is employed to fabricate films. […] Four hours later the polymer cocktail was cast on top of the PVC layer. After another 4 hours, the PVC solution was cast again as a finish layer. The membrane was covered and allowed to cure overnight. Polymer films containing no additives were prepared in a similar manner. […] NO Release Measurements by Chemiluminescence. All NO measurements were performed using a Sievers Nitric Oxide Analyzer (NOA), model 280. The instrument was calibrated before each experiment using an internal two-point calibration (zero gas and 45 PPM). The flow rate was set to 200 mL/min with a cell pressure of 5.4 torr and an oxygen pressure of 6.0 psig. […]

The nature of series [2]: Thermal gravimetric analysis under nitrogen (thermal stability of diazeniumdiolates). It counts as physicochemical. As to conditions: nitrogen atmosphere.
Series [3] deals with adult sheep. Put plainly: Coated VECTRA vascular access grafts implanted as arteriovenous grafts in sheep, 21 days. It counts as in vivo. An excerpt:
Synthetic vascular access grafts (VECTRA™), a proprietary blend of segmented polyetherurethane and siloxane (20 cm in length and 5 mm in diameter), were coated with compound 2d dispersed within a PVC/DOS matrix with appropriate additives. A sheep model was used for in vivo testing. Arteriovenous grafts connecting the common carotid artery to the ipsilateral external jugular vein were surgically implanted in subcutaneous tunnel in adult sheep. Over a 3-week period, duplex ultrasound and clinical examination were performed to assess graft patency. Grafts were removed at 21 days and underwent gross and histological evaluation. […] In addition, histological studies, using appropriate stains to highlight different regions, confirm the thrombus adherent at the luminal surface and red blood cell infiltration into upper layers of the control grafts (FIG. 11A).

Turning to `CCCCNCCCCCCN(CCCC)/[N+]([O-])=N/O` [Compound 2d, (Z)-1-{N-Butyl-N-[6-(N-butylammoniohexyl)amino]}-diazen-1-ium-1,2-diolate], the “effect of doubling the NO donor amount” value in series [1] (4 wt. % vs 8 wt. % in 1:2 PVC/DOS film with KTpClPB) is “nearly doubles the surface flux and the NO release”. The “effect of plasticizer on NO release” value in series [1] (PVC/NPOE matrix compared with PVC/DOS matrix, with KTpClPB) is “higher initial NO release”. The “effect of increasing polymer to plasticizer ratio on NO release” value in series [1] (PVC:DOS increased from 1:2 to 2:1, films with KTpClPB) was “the NO release rate decreases and the release is prolonged”. Besides, the “period of steady NO release” value in series [1] (SR tubes coated with plasticized SR, 4.2 wt. % donor, 8.1 wt. % KTpClPB, PBS buffer at 37° C.) came to 40 h. For the same compound, the “total estimated NO released from the surface of the tube” value in series [1] (SR tubes coated with plasticized SR, 4.2 wt. % donor, 8.1 wt. % KTpClPB, after 40 h in PBS buffer at 37° C.) was 15%. Further, the “time after which NO release decreases dramatically” value in series [1] (plasticized PVC film, absence of KTpClPB) is reported as “approximately 1 hour”. For the same compound, the “effect of adding KTpClPB on NO release” value in series [1] (plasticized PVC films, 1:1 mol ratio KTpClPB:donor, PBS pH 7.4, 37° C.) is “increases, prolongs, and helps to control the release of NO”. Besides, the “total NO release profile from film without additive” value in series [1] (~5 wt. % in PVC film plasticized with DOS (1:2), PBS buffer, 37° C., no KTpClPB) is listed as “never achieving theoretical total NO release”. Besides, the “t1/2 ("apparent" t1/2 and t1/2)” value (buffer, pH 7.4) amounted to 4.95 ± 0.567 min. Moreover, for the setting “first order decomposition, PBS buffer, pH 7.4, 37° C., n > 3”, the k was 0.0025 ± 0.0002 s⁻¹. In series [2], the “TNO loss (stable up to)” value is 104 °C. The graft patency entry in series [3] (duplex ultrasound and clinical examination, n=2) is “patent at 21 days”. Besides, in series [3] (grafts coated with donor in PVC/DOS matrix, removed at 21 days, n=2), the “mean luminal thrombus-free surface area” value worked out at 95%. In addition, the “histological evaluation of grafts” value in series [3] (grafts removed at 21 days) is “minimal thrombus formation and red blood cell infiltration”. For the same compound, in series [3] (grafts removed at 21 days, vs control grafts), the “gross evaluation of thrombus formation on grafts” value is given as “greatly reduced degree of thrombus formation”.
